The target of data set [1] is T1, Transient receptor potential cation channel subfamily V member 4 (Homo sapiens, UniProt Q9HBA0). Put plainly: Activation of human TRPV4 expressed in HEK293F cells upto 100 micromol/L. It is filed as cell-based. The following applies: dose <= 100.0 µmol/L.
Data set [2] is described as follows: Effect on locomotory activity in Sprague-Dawley rat model of mustard oil-induced nocifensive response at 6.2 to 62.1 mg/kg, po administered for 1 hrs. Type of data set: toxicity, organism-based. The following applies: in vivo, dose 6.2-62.1 mg/kg.
For data set [3], the target named is T2, Transient receptor potential cation channel subfamily V member 2 (Rattus norvegicus, UniProt Q9WUD2).
T2 sequence (Q9WUD2 whole entry): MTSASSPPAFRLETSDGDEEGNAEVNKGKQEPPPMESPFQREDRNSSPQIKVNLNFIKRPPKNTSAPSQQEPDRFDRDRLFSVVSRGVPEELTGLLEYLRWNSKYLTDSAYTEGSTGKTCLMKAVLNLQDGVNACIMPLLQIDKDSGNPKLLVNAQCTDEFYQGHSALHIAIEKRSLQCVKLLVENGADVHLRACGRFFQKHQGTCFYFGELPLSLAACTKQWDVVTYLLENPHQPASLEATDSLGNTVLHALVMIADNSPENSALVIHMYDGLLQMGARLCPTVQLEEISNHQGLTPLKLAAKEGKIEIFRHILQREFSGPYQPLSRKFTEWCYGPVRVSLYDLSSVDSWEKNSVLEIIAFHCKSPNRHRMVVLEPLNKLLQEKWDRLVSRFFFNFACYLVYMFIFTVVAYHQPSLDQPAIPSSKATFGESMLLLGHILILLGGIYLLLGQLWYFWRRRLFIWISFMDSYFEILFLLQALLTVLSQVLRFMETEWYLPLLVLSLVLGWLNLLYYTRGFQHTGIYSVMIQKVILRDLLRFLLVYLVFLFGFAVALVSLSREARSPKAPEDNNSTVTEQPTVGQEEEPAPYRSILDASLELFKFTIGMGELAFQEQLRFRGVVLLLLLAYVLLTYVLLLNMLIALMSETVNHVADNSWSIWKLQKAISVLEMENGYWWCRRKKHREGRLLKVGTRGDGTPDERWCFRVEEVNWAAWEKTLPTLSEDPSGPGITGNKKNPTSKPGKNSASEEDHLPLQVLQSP
Put plainly: Antagonist activity at rat TRPV2 expressed in HEK293F cells assessed as inhibition of 2APB-induced increase in intracellular Ca2+ level by FLIPR-based Ca2+ assay. Type of data set: cell-based.

Data set [4] addresses T1, Transient receptor potential cation channel subfamily V member 4. Put plainly: Antagonist activity at human TRPV4 expressed in HEK293F cells assessed as inhibition of mOsmo-induced TRPV4 channel activation by FLIPR-based Ca2+ assay relative to control. It is filed as cell-based. Conditions: concentration not given here.
The nature of data set [5]: Drug concentration in rat at 6.2 mg/kg, po measured after 60 mins. Conditions: in vivo, read-out: Drug uptake. It is filed as ADME, organism-based.
Data set [6] can be described thus: Ratio of drug concentration in rat brain to plasma at 2 mg/kg, po. It is filed as ADME, organism-based. Conditions: read-out: BPR.
Data set [7] can be described thus: Toxicity in Sprague-Dawley rat assessed as effect on tail withdrawal latency to hot water immersion at 55 degreeC at 62.1 mg/kg, po by tail immersion test. It is filed as organism-based. The following applies: in vivo.
Data set [8] addresses Transient receptor potential cation channel subfamily A member 1 (Rattus norvegicus) (UniProt Q6RI86). The experiment in a line: Antagonist activity at endogenous TRPA1 in rat DRG neurons assessed as blockade of bradykinin-induced CGRP release at 5 micromol/L. Type of data set: cell-based. The following applies: DRG neuron, filed as antagonist, dose 5.0 µmol/L.
The test system of another data set is Rattus norvegicus. Put plainly: Antiallodynic activity in CFA-induced mechanical allodynia Sprague-Dawley rat model assessed as attenuation of mechanical allodynia at 6.2 to 62.1 mg/kg, po administered with compound for 1 hrs and measured 48 hrs after CFA injection. Conditions: dose 6.2-62.1 mg/kg, time 49.0 hrs. It is filed as functional, organism-based.
Data set [9] has as its target T3, Transient receptor potential cation channel subfamily V member 2 (Rattus norvegicus) (UniProt Q9WUD2).
T3 sequence (whole entry): T2 sequence (Q9WUD2 whole entry)
Put plainly: Activation of rat TRPV2 expressed in HEK293F cells upto 100 micromol/L. It is filed as cell-based. Conditions: dose <= 100.0 µmol/L.

Data set [10] concerns the target T4, Transient receptor potential cation channel subfamily V member 3 (Homo sapiens) (UniProt Q8NET8).
T4 sequence (whole entry): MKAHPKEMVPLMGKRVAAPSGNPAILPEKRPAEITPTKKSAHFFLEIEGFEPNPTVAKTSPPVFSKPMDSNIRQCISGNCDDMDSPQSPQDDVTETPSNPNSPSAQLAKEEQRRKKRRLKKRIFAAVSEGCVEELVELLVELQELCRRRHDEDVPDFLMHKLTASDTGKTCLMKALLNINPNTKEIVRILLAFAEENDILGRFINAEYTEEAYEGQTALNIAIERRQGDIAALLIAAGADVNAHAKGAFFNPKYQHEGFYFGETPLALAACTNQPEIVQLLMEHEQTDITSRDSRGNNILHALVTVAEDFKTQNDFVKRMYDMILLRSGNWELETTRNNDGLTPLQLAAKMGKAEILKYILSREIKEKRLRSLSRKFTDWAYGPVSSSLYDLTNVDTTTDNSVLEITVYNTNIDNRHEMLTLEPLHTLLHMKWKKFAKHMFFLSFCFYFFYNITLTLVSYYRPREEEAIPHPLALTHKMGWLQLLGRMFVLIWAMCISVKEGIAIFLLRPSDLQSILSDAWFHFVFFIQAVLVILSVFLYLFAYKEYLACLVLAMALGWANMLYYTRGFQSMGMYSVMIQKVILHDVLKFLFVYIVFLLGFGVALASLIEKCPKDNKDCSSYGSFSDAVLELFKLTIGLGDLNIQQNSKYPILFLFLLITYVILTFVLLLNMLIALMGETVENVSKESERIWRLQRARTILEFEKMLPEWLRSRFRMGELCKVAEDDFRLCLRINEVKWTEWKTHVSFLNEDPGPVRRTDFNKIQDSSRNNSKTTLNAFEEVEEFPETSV
The experiment in a line: Antagonist activity at endogenous TRPV3 in human epithelial cells assessed as inhibition of 2APB-induced TRPV3 channel activation by FLIPR-based Ca2+ assay relative to control. Conditions: Epithelial cell, concentration not given here.

In data set [11] the target is Transient receptor potential cation channel subfamily V member 1 (Homo sapiens, UniProt Q8NER1). Put plainly: Antagonist activity at human TRPV1 expressed in HEK293F cells assessed as inhibition of capsaicin-induced TRPV1 channel activation by FLIPR-based Ca2+ assay relative to control. It is filed as cell-based. Conditions: concentration not given here.
Chain of Transient receptor potential cation channel subfamily V member 1 (Q8NER1 whole entry): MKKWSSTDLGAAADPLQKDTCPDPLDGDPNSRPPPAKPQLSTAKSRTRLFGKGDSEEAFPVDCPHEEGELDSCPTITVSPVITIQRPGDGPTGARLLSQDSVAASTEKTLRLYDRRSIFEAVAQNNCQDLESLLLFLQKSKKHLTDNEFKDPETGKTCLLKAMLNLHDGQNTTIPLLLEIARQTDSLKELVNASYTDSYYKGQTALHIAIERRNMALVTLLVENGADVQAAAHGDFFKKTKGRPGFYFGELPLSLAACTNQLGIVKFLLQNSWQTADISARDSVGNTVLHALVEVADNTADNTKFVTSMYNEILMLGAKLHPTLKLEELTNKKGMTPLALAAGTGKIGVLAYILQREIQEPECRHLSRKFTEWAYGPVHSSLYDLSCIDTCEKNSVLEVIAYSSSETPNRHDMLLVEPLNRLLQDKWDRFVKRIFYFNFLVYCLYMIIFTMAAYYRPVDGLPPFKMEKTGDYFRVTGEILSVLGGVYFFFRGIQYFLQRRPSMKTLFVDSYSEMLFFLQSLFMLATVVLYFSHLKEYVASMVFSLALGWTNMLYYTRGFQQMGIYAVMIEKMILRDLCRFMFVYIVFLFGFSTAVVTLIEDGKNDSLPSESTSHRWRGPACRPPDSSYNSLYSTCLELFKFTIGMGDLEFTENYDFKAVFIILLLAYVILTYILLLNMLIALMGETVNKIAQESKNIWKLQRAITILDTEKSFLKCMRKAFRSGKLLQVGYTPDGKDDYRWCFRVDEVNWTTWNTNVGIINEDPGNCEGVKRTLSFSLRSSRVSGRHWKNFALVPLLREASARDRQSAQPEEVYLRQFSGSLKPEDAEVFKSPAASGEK
The nature of data set [12]: Cmax in rat at 2 mg/kg, po. The following applies: in vivo. It is filed as ADME, organism-based.

Results on 1 compound are retold here after ChEMBL document CHEMBL5678803, “Selective blockade of TRPA1 channel attenuates pathological pain without altering noxious cold sensation or body temperature regulation” (Pain, 2011).

Structures are written as SMILES. The source made the active and inactive calls. No cut-off for these calls is given here.

T1 sequence (Q9HBA0 whole entry): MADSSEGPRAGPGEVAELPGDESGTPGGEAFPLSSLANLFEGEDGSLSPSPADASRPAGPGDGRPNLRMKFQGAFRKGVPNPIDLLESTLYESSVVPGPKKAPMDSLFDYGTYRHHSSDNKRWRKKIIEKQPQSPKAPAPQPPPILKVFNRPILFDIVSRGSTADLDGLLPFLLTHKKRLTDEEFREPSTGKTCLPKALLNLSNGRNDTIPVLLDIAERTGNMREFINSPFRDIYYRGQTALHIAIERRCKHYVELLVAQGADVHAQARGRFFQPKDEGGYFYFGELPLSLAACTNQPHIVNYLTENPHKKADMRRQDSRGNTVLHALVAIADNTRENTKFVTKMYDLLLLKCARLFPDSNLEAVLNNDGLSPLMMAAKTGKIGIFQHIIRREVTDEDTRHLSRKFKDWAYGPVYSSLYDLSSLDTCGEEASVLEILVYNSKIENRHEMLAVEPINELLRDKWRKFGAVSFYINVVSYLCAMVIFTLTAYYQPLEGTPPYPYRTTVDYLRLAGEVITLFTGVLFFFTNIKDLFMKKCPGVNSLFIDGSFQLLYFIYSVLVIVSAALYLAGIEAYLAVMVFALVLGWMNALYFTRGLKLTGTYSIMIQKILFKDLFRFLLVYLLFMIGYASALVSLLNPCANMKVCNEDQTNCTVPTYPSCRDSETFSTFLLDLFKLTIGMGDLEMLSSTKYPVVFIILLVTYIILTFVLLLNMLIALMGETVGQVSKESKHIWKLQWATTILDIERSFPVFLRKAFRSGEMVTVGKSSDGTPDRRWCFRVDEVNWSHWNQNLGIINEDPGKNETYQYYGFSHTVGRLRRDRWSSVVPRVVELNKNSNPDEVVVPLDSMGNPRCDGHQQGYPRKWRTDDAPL
Chain of Transient receptor potential cation channel subfamily A member 1 (Rattus norvegicus) (Q6RI86 whole entry): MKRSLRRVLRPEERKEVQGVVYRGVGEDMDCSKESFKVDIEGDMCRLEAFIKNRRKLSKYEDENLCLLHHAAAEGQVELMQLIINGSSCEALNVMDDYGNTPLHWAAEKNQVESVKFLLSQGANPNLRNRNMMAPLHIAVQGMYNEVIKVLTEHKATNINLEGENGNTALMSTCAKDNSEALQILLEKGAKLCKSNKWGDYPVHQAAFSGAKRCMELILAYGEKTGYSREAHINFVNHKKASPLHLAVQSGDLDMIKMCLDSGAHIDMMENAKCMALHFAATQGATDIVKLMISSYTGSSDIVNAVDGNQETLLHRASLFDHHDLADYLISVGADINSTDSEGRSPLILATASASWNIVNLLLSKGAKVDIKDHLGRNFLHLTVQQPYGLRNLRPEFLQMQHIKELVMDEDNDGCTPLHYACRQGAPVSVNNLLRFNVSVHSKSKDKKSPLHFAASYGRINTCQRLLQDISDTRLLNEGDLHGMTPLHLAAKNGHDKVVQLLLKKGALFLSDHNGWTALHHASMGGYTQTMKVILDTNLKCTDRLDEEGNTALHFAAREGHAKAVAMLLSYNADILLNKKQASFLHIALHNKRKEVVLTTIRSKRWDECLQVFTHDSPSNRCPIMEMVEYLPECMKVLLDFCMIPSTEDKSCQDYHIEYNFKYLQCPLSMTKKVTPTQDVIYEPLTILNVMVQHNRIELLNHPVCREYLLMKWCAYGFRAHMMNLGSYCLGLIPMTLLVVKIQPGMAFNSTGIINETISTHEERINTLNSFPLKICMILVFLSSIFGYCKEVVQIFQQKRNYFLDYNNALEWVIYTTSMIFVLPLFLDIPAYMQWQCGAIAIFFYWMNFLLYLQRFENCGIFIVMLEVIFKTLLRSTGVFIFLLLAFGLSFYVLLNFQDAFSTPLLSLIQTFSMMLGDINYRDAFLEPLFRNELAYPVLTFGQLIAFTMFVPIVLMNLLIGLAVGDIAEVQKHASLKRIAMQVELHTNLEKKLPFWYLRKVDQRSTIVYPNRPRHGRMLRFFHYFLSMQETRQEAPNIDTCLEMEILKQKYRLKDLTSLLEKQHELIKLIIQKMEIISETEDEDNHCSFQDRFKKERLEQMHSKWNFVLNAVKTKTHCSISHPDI

In general, IC50 refers to the concentration that gives 50% inhibition. By inhibition is commonly meant the drop in the measured response relative to a control, in per cent. As usually defined, the Cmax is the maximum level reached in the sampled fluid or tissue. Consider `CCC(=N\O)/C(C)=C/c1ccc(F)cc1` [A-079], for which the outcome (in data set [1]; in the data set with Rattus norvegicus; in data set [9]) was inactive. Also, the Activity result in data set [2] and in data set [7] was “Non-Toxic” throughout. Further, the IC50 in data set [3] is more than 100 µM. The inhibition in data set [4], in data set [10] and in data set [11] was less than 20% throughout. For the same compound, the concentration at 1 h in data set [5] amounted to 1540 nM. Moreover, the Kp in data set [6] was found to be 0.75. In [8], the outcome was Active. Moreover, the maximum concentration (Cmax) in data set [12] was found to be 720 nM.
